For this test, the system named is mouse macrophage (RAW 264.7 cell). Put plainly: Inhibition of NO production (nitrite by Greiss reaction) in LPS-treated mouse macrophages. The class given is cell-based. Particulars: for IC50: Mus musculus. From the text:
This embodiment uses an analytical method to induce the macrophage of an inflaming mouse, with combination of Greiss reaction, to measure nitrites so as to indirectly measure the output of nitrogen monoxide (NO). As NO is a significant factor in the inflaming reaction, the output of NO can be used to evaluate the degree of inflaming reaction.
In brief, culture mouse macrophage (RAW 264.7 cell) pre-cultured in a 75 cm^2 culture dish in a 96 well plate at a density of 2×10^5 cells/well. The culture solution used is DMEM with 10% FBS, 100 units/mL penicillin and 100 μg/mL streptomycin. The culturing environment is 37° C. and 5% CO2 cell incubator. Let the normally attaching cells pass or not pass the LPS (1 μg/mL) processing with addition or no addition of the compounds obtained from Embodiment II. Then, use Greiss reaction to measure the concentration of nitrites in the upper clarified liquid of the culture solution after culturing the cells.
The experimental results are shown in FIG. 3, wherein, the ability of each compound to inhibit production of NO is shown through the method of IC50. IC50 represents 50% of the inhibiting concentration, i.e., […]. From the data in the figure, it is known that the compounds obtained from Embodiment II all manifest an effect of inhibiting production of NO, i.e., an anti-inflammation effect.

The mark [1] stands for this setting: RAW 264.7 cells, LPS 1 μg/mL, FIG. 3.

Where two headings read alike, the source gives them in different places. Some results are limits rather than exact numbers.

Consider `C=C(CC[C@@H](C(=O)O)[C@H]1CC[C@@]2(C)C3=CC[C@H]4C(C)(C)[C@@H](O)CC[C@]4(C)C3=CC[C@]12C)C(C)C` [Compound m, Dehydroeburicoic acid], for which the IC50 by setting is: (RAW264.7, read-out: IC50 of inhibiting production of NO) over 20 µg/mL; (RAW264.7, read-out: IC50 of inhibiting production of NO (approximate range)) 20 to 35 µg/mL.

As to `COc1cc(C)c(OC)c2c1OCO2` [Compound b, 1,4-dimethoxy-2,3-methylenedioxy-5-methylbenzene], the IC50 is, setting by setting: (RAW264.7, RAW 264.7 cells, LPS 1 μg/mL, nitrites by Greiss reaction, FIG. 3, printed in brackets as 'about', read-out: IC50 of inhibiting production of NO (approximate range)) 20 to 35 µg/mL; (RAW264.7, RAW 264.7 cells, LPS 1 μg/mL, nitrites by Greiss reaction, FIG. 3, read-out: IC50 of inhibiting production of NO) over 20 µg/mL. With `C=C(C)C#Cc1c(C)c2c(c(OC)c1OC)OCO2` [Compound h, Antrocamphin C], under setting [1], the “anti-inflammation ability (inhibiting production of NO), in words” value was “excellent anti-inflammation ability”. `C=C(C)C#Cc1c(OC)cc(OC)c(OC)c1C` [Compound d, Antrocamphin A]: the “anti-inflammation ability (inhibiting production of NO), in words” value under setting [1] is given as “excellent anti-inflammation ability”.

One may read the IC50 as the concentration needed to halve the response being measured.
